From patent US10227331B2 (priority 2015, dated 2019) come the findings set out here.

The target in data set [1] is VIM-1 (Pseudomonas aeruginosa (strain ATCC 15692 / DSM 22644 / CIP 104116 / JCM 14847 / LMG 12228 / 1C / PRS 101 / PAO1), UniProt A0A0F7KYQ8). The data set is described as follows: biochemical. Particulars: CCF2-FA substrate, 2 hours at 25° C. In short, it runs like this:
(§1)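 Enzyme activity was measured by fluorescence using CCF2-FA, a cephalosporin-linked 7-hydroxycoumarin/fluorescein substrate, with inhibitor, metallo-β-lactamase and substrate incubated together for 2 hours at 25° C. IC50 came from a 4-parameter fit of inhibition versus log inhibitor concentration.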

In data set [2] the test system is P. aeruginosa expressing IMP-1, efflux− (MB9799). The data set is described as follows: Efflux: concentration of MBL inhibitor which restores susceptibility to imipenem. The data set is classed as cell-based, Pseudomonas aeruginosa. The conditions noted are these: imipenem at 2 μg/mL, in the presence of a class A, C, D serine β-lactamase inhibitor closely related to relebactam. The text has this:
(§2) The strain background is Pseudomonas aeruginosa PAO1.

Data set [3] deals with NDM-1 (Klebsiella pneumoniae, UniProt C7C422). The data set is described as follows: biochemical. The class given is biochemical. The conditions noted are these: CCF2-FA substrate, 2 hours at 25° C; read-out: NDM-1 IC50. A digest of the protocol: as §1
NDM-1, sequence (C7C422 whole entry, looked up, species assumed): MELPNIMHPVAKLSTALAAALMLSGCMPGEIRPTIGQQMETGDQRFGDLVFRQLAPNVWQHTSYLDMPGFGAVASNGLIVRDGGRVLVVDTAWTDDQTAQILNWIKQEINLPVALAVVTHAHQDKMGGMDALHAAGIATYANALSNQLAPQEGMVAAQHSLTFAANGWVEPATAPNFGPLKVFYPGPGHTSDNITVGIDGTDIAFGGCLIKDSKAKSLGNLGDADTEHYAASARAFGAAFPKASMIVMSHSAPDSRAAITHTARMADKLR
Data set [4] addresses IMP-1 (Serratia marcescens, UniProt P52699). The data set is described as follows: biochemical. The conditions noted are these: CCF2-FA substrate, 2 hours at 25° C; read-out: IMP-1 IC50. The class given is biochemical. In short, it runs like this:
as §1

Data set [5] deals with P. aeruginosa expressing IMP-1, efflux+ (MB9798). The class given is cell-based, Pseudomonas aeruginosa. The conditions noted are these: for P. aeruginosa expressing IMP-1, efflux+ (MB9798) MITC95: imipenem at 2 μg/mL, in the presence of a class A, C, D serine β-lactamase inhibitor closely related to relebactam; for Efflux ratio: ratio MITC95 PA_9798/MITC95 PA_9799.
From the text: as §2

In data set [6] the test system is Escherichia coli expressing NDM-1 (CLB30005, CLB30016). The data set is classed as cell-based. Particulars: with imipenem 1 μg/ml, 95% inhibition of bacterial growth. In short, it runs like this:
(§3)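 Restoration of imipenem susceptibility (1 μg/ml imipenem) was judged by absorbance after 22–24 h at 35° C. Test compound was added to bacteria suspended 1:100 in 1.1× CAMHB from overnight blood-agar cultures.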

The test system of data set [7] is Serratia marcescens expressing IMP-1 (CL5741). The class given is cell-based. Particulars: with imipenem 1 μg/ml, 95% inhibition of bacterial growth. A digest of the protocol:
as §3

Data set [8] concerns Klebsiella pneumoniae expressing VIM-1 (IHMA599644). The class given is cell-based. The conditions noted are these: with imipenem 1 μg/ml, 95% inhibition of bacterial growth. In short, it runs like this: as §3

IMP-1, sequence (P52699 whole entry, looked up, species assumed): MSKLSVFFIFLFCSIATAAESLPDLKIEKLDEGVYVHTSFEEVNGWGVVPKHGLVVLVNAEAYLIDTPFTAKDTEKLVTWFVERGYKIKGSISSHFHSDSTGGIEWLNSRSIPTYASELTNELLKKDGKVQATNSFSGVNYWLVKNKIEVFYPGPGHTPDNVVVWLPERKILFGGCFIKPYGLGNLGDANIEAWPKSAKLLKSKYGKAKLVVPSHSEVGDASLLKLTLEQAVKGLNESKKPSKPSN

Usually IC50 stands for the concentration that gives 50% inhibition. On to `NS(=O)(=O)c1c(S(=O)(=O)C2CNC2)ccc(-c2cnc3ccccn23)c1-c1nn[nH]n1` [Example 9, 6-(Azetidin-3-ylsulfonyl)-3-(imidazo[1,2-a]pyridin-3-yl)-2-(2H-tetrazol-5-yl)benzenesulfonamide], for which the IC50 in data set [1] turned out to be 0.375 nM; in data set [3], 0.332 nM; in data set [4], 0.913 nM. Moreover, the “P. aeruginosa expressing IMP-1, efflux− (MB9799) MITC95” value in data set [2] worked out at 1.563 µM. The “P. aeruginosa expressing IMP-1, efflux+ (MB9798) MITC95” value in data set [5] is 6.25 µM. Moreover, the Efflux ratio in data set [5] is reported as 4.00. The “Escherichia coli expressing NDM-1 (CLB30016) MITC95” value in data set [6] was determined as 0.7813 µM. Also, the “Serratia marcescens expressing IMP-1 (CL5741) MITC95” value in data set [7] turned out to be 1.563 µM. In addition, the “Klebsiella pneumoniae expressing VIM-1 (IHMA599644) MITC95” value in data set [8] came to 3.125 µM.

On to `C[C@@H](N)CS(=O)(=O)c1ccc(-c2cccc3[nH]c(N)nc23)c(-c2nn[nH]n2)c1S(N)(=O)=O` [Example 267, 3-(2-amino-1H-benzo[d]imidazol-4-yl)-6-((R)-2-aminopropylsulfonyl)-2-(2H-tetrazol-5-yl)benzenesulfonamide], for which the IC50 in data set [1] turned out to be 0.517 nM; in data set [3], 0.213 nM; in data set [4] it was 0.964 nM. In addition, the “P. aeruginosa expressing IMP-1, efflux− (MB9799) MITC95” value in data set [2] was 0.7813 µM. The “P. aeruginosa expressing IMP-1, efflux+ (MB9798) MITC95” value in data set [5] stood at 0.7813 µM. In addition, in data set [5], the Efflux ratio worked out at 1.00. Moreover, in data set [6] (NDM-1 (CLB30016)), the “Escherichia coli MITC95” value was 0.3906 µM. Further, in data set [7] (IMP-1 (CL5741)), the “Serratia marcescens MITC95” value worked out at 0.7813 µM. The “Klebsiella pneumoniae MITC95” value in data set [8] (VIM-1 (IHMA599644)) was found to be 1.563 µM.

Regarding `Cn1ncc2c(-c3ccc(S(=O)(=O)C4CNC4)c(S(N)(=O)=O)c3-c3nnn[nH]3)cccc21.O=C(O)C(F)(F)F` [Example 123, 3-((4-(1-methyl-1H-indazol-4-yl)-2-sulfamoyl-3-(1H-tetrazol-5-yl)phenyl)sulfonyl)azetidin-1-ium 2,2,2-trifluoroacetate], the IC50 in data set [1] turned out to be 0.215 nM; in data set [3], 0.168 nM; in data set [4] it was 1.14 nM. Moreover, the “P. aeruginosa expressing IMP-1, efflux− (MB9799) MITC95” value in data set [2] was found to be 1.563 µM. The “P. aeruginosa expressing IMP-1, efflux+ (MB9798) MITC95” value in data set [5] came to 25 µM. In addition, the Efflux ratio in data set [5] came out at 15.99. In addition, the “Escherichia coli expressing NDM-1 (CLB30016) MITC95” value in data set [6] came to 1.563 µM. The “Serratia marcescens expressing IMP-1 (CL5741) MITC95” value in data set [7] amounted to 3.125 µM. The “Klebsiella pneumoniae expressing VIM-1 (IHMA599644) MITC95” value in data set [8] amounted to 3.125 µM.

With `NCCS(=O)(=O)c1ccc(-c2cccc3sc(C(=O)O)nc23)c(-c2nn[nH]n2)c1S(N)(=O)=O` [Example 88, 4-(4-(2-aminoethylsulfonyl)-3-sulfamoyl-2-(2H-tetrazol-5-yl)phenyl)benzo[d]thiazole-2-carboxylic acid], the IC50 in data set [1] is 0.158 nM; in data set [3], 0.0522 nM; in data set [4], 0.144 nM. Moreover, the “P. aeruginosa expressing IMP-1, efflux− (MB9799) MITC95” value in data set [2] was found to be 3.125 µM. Moreover, the “P. aeruginosa expressing IMP-1, efflux+ (MB9798) MITC95” value in data set [5] amounted to 6.25 µM. Further, the Efflux ratio in data set [5] was determined as 2.00. The “Escherichia coli expressing NDM-1 (CLB30016) MITC95” value in data set [6] is 1.563 µM. In addition, the “Serratia marcescens expressing IMP-1 (CL5741) MITC95” value in data set [7] is 6.25 µM. For the same compound, the “Klebsiella pneumoniae expressing VIM-1 (IHMA599644) MITC95” value in data set [8] came to 12.5 µM.

As for `Nc1cncc(-c2ccc(S(=O)(=O)C3CNC3)c(S(N)(=O)=O)c2-c2nnn[nH]2)c1.O=C(O)C(F)(F)F` [Example 112, 3-((4-(5-aminopyridin-3-yl)-2-sulfamoyl-3-(1H-tetrazol-5-yl)phenyl)sulfonyl)azetidin-1-ium 2,2,2-trifluoroacetate], the IC50 in data set [1] amounted to 1.79 nM; in data set [3], 2.51 nM; in data set [4] it was 8.68 nM. The “P. aeruginosa expressing IMP-1, efflux− (MB9799) MITC95” value in data set [2] came to 3.125 µM. In data set [5], the “P. aeruginosa expressing IMP-1, efflux+ (MB9798) MITC95” value was 12.5 µM. Besides, the Efflux ratio in data set [5] is recorded as 4.00. Moreover, the “Escherichia coli expressing NDM-1 (CLB30016) MITC95” value in data set [6] worked out at 3.125 µM. Further, the “Serratia marcescens expressing IMP-1 (CL5741) MITC95” value in data set [7] is 3.125 µM. For the same compound, the “Klebsiella pneumoniae expressing VIM-1 (IHMA599644) MITC95” value in data set [8] turned out to be 6.25 µM.
